Data taken from ChEMBL document CHEMBL4402531, “Recent advances in α,β-unsaturated carbonyl compounds as mitochondrial toxins” (Eur J Med Chem, 2019).

Legend:
PC-3 [1] = assay: Cytotoxicity against human PC3 cells assessed as reduction in cell viability; type: functional, cell-based
HeLa [2] = assay: Cytotoxicity against human HeLa cells assessed as reduction in cell viability after 72 hrs by MTT assay; type: functional, cell-based
SiHa [3] = assay: Cytotoxicity against human SiHa cells assessed as reduction in cell viability after 72 hrs; type: functional, cell-based
L02 = assay: Cytotoxicity against human LO2 cells assessed as reduction in cell viability after 48 hrs by MTT assay; type: functional, cell-based; details: L02, 48 h
C-33-A = assay: Cytotoxicity against human C33A cells assessed as reduction in cell viability after 72 hrs; type: functional, cell-based
Ca-Ski = assay: Cytotoxicity against human CaSki cells assessed as reduction in cell viability after 72 hrs; type: functional, cell-based
HeLa [4] = assay: Cytotoxicity against human HeLa cells assessed as reduction in cell viability after 72 hrs; type: functional, cell-based
SiHa [5] = assay: Cytotoxicity against human SiHa cells assessed as reduction in cell viability after 72 hrs by MTT assay; type: functional, cell-based
PC-12 = assay: Cytotoxicity against rat PC12 cells assessed as reduction in cell viability after 48 hrs by MTT assay; type: functional, cell-based; details: PC-12, 48 h
PC-3 [6] = assay: Cytotoxicity against human PC3 cells assessed as reduction in cell viability relative to control; type: functional
LNCaP = assay: Cytotoxicity against human LNCAP cells assessed as reduction in cell viability relative to control; type: functional
LNCaP C4-2 = assay: Cytotoxicity against human C4-2 cells assessed as reduction in cell viability relative to control; type: functional
DU-145 = assay: Cytotoxicity against human DU145 cells assessed as reduction in cell viability relative to control; type: functional
MCF7 [7] = assay: Cytotoxicity against human MCF7 cells assessed as reduction in cell viability at 0.01 uM after 48 hrs by fluorescence assay relative to control; type: functional
MCF7 [8] = assay: Cytotoxicity against human MCF7 cells assessed as reduction in cell viability at 5 uM after 48 hrs by fluorescence assay relative to control; type: functional
HepG2 = assay: Growth inhibition of human HepG2 cells; type: functional, cell-based
CNE = assay: Cytotoxicity against human CNE1 cells assessed as reduction in cell viability after 48 hrs; type: functional, cell-based
CNE-2 = assay: Cytotoxicity against human CNE2 cells assessed as reduction in cell viability after 48 hrs; type: functional, cell-based; details: CNE-2, 48 h
HL-60 = assay: Cytotoxicity against human HL60 cells assessed as reduction in cell viability; type: functional, cell-based
[9] = target: RAF proto-oncogene serine/threonine-protein kinase (Homo sapiens) (UniProt P04049); assay: Inhibition of c-RAF (unknown origin) phosphorylation relative to control; details: concentration not given here
Homo sapiens = organism: Homo sapiens; assay: Inhibition of ERK (unknown origin) phosphorylation relative to control; details: concentration not given here
[10] = target: Dual specificity mitogen-activated protein kinase kinase; MEK1/2 (Homo sapiens) (UniProt P36507+Q02750); assay: Inhibition of MEK (unknown origin) phosphorylation relative to control; type: protein assay; details: concentration not given here
HeLa [11] = assay: Cytotoxicity against human HeLa cells assessed as reduction in cell viability; type: functional, cell-based
MCF7 [12] = assay: Cytotoxicity against human MCF7 cells assessed as reduction in cell viability; type: functional, cell-based
HCT-116 = assay: Cytotoxicity against human HCT116 cells assessed as reduction in cell viability after 72 hrs by MTT assay; type: functional, cell-based; details: HCT-116, 72 h
MGC-803 = assay: Cytotoxicity against human MGC803 cells assessed as reduction in cell viability after 24 hrs by MTT assay; type: functional, cell-based; details: MGC-803, 24 h
HGC-27 = assay: Cytotoxicity against human HGC27 cells assessed as reduction in cell viability after 24 hrs by MTT assay; type: functional, cell-based; details: HGC-27, 24 h
SGC-7901 = assay: Cytotoxicity against human SGC7901 cells assessed as reduction in cell viability after 24 hrs by MTT assay; type: functional, cell-based; details: SGC-7901, 24 h
U2OS = assay: Cytotoxicity against human U2OS cells assessed as reduction in cell viability after 48 hrs; type: functional, cell-based
MG-63 = assay: Cytotoxicity against human MG63 cells assessed as reduction in cell viability after 48 hrs; type: functional, cell-based; details: MG-63, 48 h
K562 [13] = assay: Cell cycle arrest in human K562 cells assessed as accumulation at G1 phase; type: functional, cell-based
K562 [14] = assay: Induction of apoptosis in human K562 cells; type: functional, cell-based
K562 [15] = assay: Cell cycle arrest in human K562 cells assessed as accumulation at G0 phase; type: functional, cell-based
MSTO-211H = assay: Cytotoxicity against human MSTO-211H cells assessed as reduction in cell viability after 24 to 48 hrs by MTS assay; type: functional, cell-based
HK-2 = assay: Cytotoxicity against human HK2 cells assessed as reduction in cell viability after 24 to 48 hrs by MTT assay; type: cell-based
WI-38 = assay: Cytotoxicity against human WI38 cells assessed as reduction in cell viability after 24 to 48 hrs by MTT assay; type: cell-based
MCF7 [16] = assay: Cytotoxicity against human MCF7 cells assessed as reduction in cell viability after 24 to 48 hrs by MTS assay; type: functional, cell-based
SiHa [17] = assay: Cytotoxicity against human SiHa cells assessed as reduction in cell viability after 24 hrs by MTT assay; type: functional, cell-based
HeLa [18] = assay: Cytotoxicity against human HeLa cells assessed as reduction in cell viability after 24 hrs by MTT assay; type: functional, cell-based
NCI-H28 = assay: Cytotoxicity against human NCI-H28 cells assessed as reduction in cell viability after 24 to 48 hrs by MTS assay; type: functional, cell-based
MDA-MB-231 = assay: Cytotoxicity against human MDA-MB-231 cells assessed as reduction in cell viability after 24 to 48 hrs by MTS assay; type: functional, cell-based

Chain of RAF proto-oncogene serine/threonine-protein kinase (Homo sapiens) (P04049 whole entry): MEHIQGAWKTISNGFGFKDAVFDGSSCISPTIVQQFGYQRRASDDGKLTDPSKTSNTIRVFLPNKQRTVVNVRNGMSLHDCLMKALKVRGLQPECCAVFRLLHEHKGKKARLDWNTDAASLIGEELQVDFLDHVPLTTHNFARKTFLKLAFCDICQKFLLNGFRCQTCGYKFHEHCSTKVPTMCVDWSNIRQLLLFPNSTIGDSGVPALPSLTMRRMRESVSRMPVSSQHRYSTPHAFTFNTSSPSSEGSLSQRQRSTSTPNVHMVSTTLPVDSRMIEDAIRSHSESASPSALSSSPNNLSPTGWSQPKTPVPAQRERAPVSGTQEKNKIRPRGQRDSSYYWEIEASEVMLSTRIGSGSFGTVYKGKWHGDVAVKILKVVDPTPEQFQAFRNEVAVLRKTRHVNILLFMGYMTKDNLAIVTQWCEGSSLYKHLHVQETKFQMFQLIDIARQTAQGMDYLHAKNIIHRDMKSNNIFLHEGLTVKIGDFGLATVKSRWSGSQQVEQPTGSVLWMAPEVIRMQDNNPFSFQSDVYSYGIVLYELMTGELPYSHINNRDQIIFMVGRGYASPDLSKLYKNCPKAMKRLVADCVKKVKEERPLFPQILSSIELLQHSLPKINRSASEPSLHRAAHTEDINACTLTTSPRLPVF
Chain of Dual specificity mitogen-activated protein kinase kinase; MEK1/2 (Homo sapiens) (P36507 whole entry, looked up): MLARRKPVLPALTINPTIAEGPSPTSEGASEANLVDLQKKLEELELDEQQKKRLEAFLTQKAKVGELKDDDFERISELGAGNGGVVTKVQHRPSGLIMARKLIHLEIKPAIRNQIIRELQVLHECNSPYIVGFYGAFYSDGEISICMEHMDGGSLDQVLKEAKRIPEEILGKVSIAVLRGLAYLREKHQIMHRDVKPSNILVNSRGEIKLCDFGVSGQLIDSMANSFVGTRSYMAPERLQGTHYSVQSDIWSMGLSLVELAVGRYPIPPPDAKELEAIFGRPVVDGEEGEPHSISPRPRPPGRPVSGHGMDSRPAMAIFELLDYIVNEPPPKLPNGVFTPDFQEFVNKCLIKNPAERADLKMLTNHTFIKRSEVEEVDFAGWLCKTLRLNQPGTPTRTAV
Chain of Dual specificity mitogen-activated protein kinase kinase; MEK1/2 (Homo sapiens) (Q02750 whole entry, looked up): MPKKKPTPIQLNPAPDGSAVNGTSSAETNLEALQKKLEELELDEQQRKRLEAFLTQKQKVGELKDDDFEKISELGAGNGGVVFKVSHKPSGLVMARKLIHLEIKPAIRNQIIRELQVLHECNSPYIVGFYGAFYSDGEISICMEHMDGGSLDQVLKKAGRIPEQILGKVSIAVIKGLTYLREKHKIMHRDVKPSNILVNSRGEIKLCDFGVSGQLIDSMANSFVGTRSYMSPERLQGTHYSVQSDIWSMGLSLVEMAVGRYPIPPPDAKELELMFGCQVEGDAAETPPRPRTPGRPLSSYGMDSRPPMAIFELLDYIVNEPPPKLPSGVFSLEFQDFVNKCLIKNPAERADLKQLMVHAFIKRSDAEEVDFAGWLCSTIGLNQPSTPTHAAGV

SMILES: CCOc1ccc(C(=O)/C=C/c2ccccc2)c(O)c1
- IC50 (PC-3 [1]): 8.08 to 13.8 µM

SMILES: O=C(/C=C/c1ccc(O)cc1)c1ccc(O)cc1O [ISOLIQUIRITIGENIN]
- IC50 (HeLa [2]): 58.1 µM
- IC50 (SiHa [3]): 53.8 µM
- IC50 (L02): > 1000 µM
- IC50 (C-33-A): 32.8 µM
- IC50 (Ca-Ski): 39.1 µM
- IC50 (HeLa [4]): 58.1 µM
- IC50 (SiHa [5]): 53.8 µM
- IC50 (PC-12): 17.8 µM

SMILES: COc1cc(O)c(CC=C(C)C)c(O)c1C(=O)/C=C/c1ccc(O)cc1 [XANTHOHUMOL]
- Activity (PC-3 [6]): 42%
- Activity (LNCaP): 41%
- Activity (LNCaP C4-2): 30%
- Activity (DU-145): 38%
- Activity (MCF7 [7]): 39.6%
- Activity (MCF7 [8]): -57.3%

SMILES: CCCCC/C=C/C(=O)CCc1ccc(O)c(OC)c1 [SHOGAOL]
- IC50 (HepG2): 88 µM

SMILES: COc1ccc(C(=O)/C=C/c2ccccc2)c(O)c1
- IC50 (PC-3 [1]): 8.08 to 13.8 µM

SMILES: C=C1C(=O)[C@]23[C@H](O)[C@@H]1CC[C@H]2[C@]12CCCC(C)(C)[C@H]1[C@H](O)[C@@]3(O)OC2
- IC50 (CNE): 1.26 µM
- IC50 (CNE-2): 1.52 µM

SMILES: CCn1cc(C(=O)O)c(=O)c2c3c(ccc21)NC(=O)/C3=C1/C(=O)Nc2ccc(Cl)cc21
- IC50 (HL-60): 4.27 µM

SMILES: O=C(/C=C/c1ccccc1)c1ccc(O)cc1O [2',4'-DIHYDROXYCHALCONE]
- IC50 (PC-3 [1]): 8.08 to 13.8 µM

SMILES: O=C(/C=C/c1ccc(O)cc1)/C(C(=O)Nc1ccccc1)=C(O)/C=C/c1ccc(O)cc1
- inhibition [9]: 93%
- inhibition (Homo sapiens): 87%
- inhibition [10]: 91%

SMILES: COc1cc(O)c(C(=O)/C=C/c2ccccc2)c2c1C=CC(C)(CCC=C(C)C)O2 (stereo not given) [BOESENBERGIN A]
- IC50 (HeLa [11]): 20 µM
- IC50 (MCF7 [12]): 20 µM

SMILES: COc1cccc(OC)c1C(=O)/C=C/c1c2ccccc2nc2ccccc12
- IC50 (HCT-116): 4.2 µM

SMILES: COc1ccc(Br)cc1C(=O)/C=C/c1ccc(S(C)(=O)=O)cc1
- IC50 (MGC-803): 3.57 to 5.61 µM
- IC50 (HGC-27): 3.57 to 5.61 µM
- IC50 (SGC-7901): 3.57 to 5.61 µM

SMILES: O=C(/C=C(\O)c1ccccc1)c1ccccc1O [2',beta-DIHYDROXYCHALCONE]
- IC50 (U2OS): 19.6 µM
- IC50 (MG-63): 23.8 µM

SMILES: CCCOc1ccc(C(=O)/C=C/c2ccccc2)c(O)c1
- IC50 (PC-3 [1]): 8.08 to 13.8 µM

SMILES: COc1cc(/C=C/C(=O)C(=Cc2ccncc2)C(=O)/C=C/c2ccc(O)c(OC)c2)ccc1O
- IC50 (K562 [13]): 0.4 to 3.2 µM
- IC50 (K562 [14]): 0.4 to 3.2 µM
- IC50 (K562 [15]): 0.6 µM

SMILES: CC(=O)Oc1ccc(C(=O)/C=C/c2ccccc2)c(O)c1
- IC50 (PC-3 [1]): 8.08 to 13.8 µM

SMILES: C=CC(C)(C)c1cc(/C=C/C(=O)c2ccc(O)cc2)c(OC)cc1O [LICOAGROCHACONE A]
- IC50 (MSTO-211H): 26 µM
- IC50 (HK-2): 88.7 µM
- IC50 (WI-38): 90.2 µM
- IC50 (MCF7 [16]): 22 µM
- IC50 (SiHa [17]): 42.2 µM
- IC50 (HeLa [18]): 48.5 µM
- IC50 (NCI-H28): 30 µM
- IC50 (MDA-MB-231): 22 µM
